Patent publication US20180296630A1, “METHODS AND COMPOSITIONS FOR PREVENTING OR TREATING OPHTHALMIC CONDITIONS” (Stealth BioTherapeutics Corp, priority 2012, published 2018)

Key:
[1] = system: human retinal epithelial cells (HREC); experiment: Mitochondrial membrane potential of high-glucose HRECs (JC-1, flow cytometry); assay type: cell-based; settings: 100 nM co-treatment with high glucose; 24 or 48 hours
Procedure: Assessment of D-Arg-2′,6′-Dmt-Lys-Phe-NH2 as a protectant against mitochondrial potential loss of HRECs treated with high-glucose was examined. To determine if a mitochondrial-mediated pathway was important in the protective effect of D-Arg-2′,6′-Dmt-Lys-Phe-NH2 against high glucose-induced cell death, ΔΨm was measured by flow cytometry. After treating the HRECs with high-glucose without D-Arg-2′,6′-Dmt-Lys-Phe-NH2 for 24 or 48 hours, a rapid loss of mitochondrial membrane potential was detected by JC-1 fluorescent probe as indicated by a significant decrease in the ratio of red to green fluorescence observed in the high glucose group.

[2] = Ocular pharmacokinetics and disposition of total radioactivity after topical instillation or subcutaneous dosing; assay type: in vivo, New Zealand White rabbits; settings: for AUC0-24 h / AUCinf / T1/2 / Tmax: topical instillation 1% solution, 40 μL/eye, total radioactivity; for time post-dosing at which equivalent drug concentration reached a maximum / equivalent drug content at peak concentration, of the total dose administered to the eye: topical instillation
Procedure: Sixteen New Zealand White rabbits were dosed with a formulation consisting of 10 mg/mL of ^14C-labeled D-Arg-2′,6′-Dmt-Lys-Phe-NH2. Animals were at least twelve weeks old and weighed 2.30-3.43 kg at the time of dosing. Animals were randomized to treatment groups according to Table 7.
Dosing solutions were prepared by combining 14.70 mg (correction factor of 0.782) of non-radiolabeled D-Arg-2′,6′-Dmt-Lys-Phe-NH2, and 17.49 mg (correction factor of 0.770) of ^14C-labeled D-Arg-2′,6′-Dmt-Lys-Phe-NH2, and dissolving in 2.5 mL of 0.01M PBS, pH 7.4 to achieve a concentration of 9.97 mg/mL (1%, free peptide) and a radiolabeled concentration of […]. Three aliquots (100 μL) of dosing solution were brought to a volume of 25 mL with saline. Duplicate 100 μL aliquots of the diluted solutions were quantified for radioactivity by liquid scintillation counting (LSC). […] The dosing solutions were stored at 2-8° C. for up to 24 hours prior to use, or at −70° C. for future use.
On Day 1, 40 μL of the 1% (10 mg/mL) D-Arg-2′,6′-Dmt-Lys-Phe-NH2 dosing solution was topically instilled into both eyes of each animal in Groups A-G. Each animal in Groups H-I received a single subcutaneous dose of 0.1 mL/kg (1 mg/kg) of the dosing solution into the dorsal scapular region. At the designated time, each animal was anesthetized and blood was collected via cardiac puncture. Animals were euthanized following cardiac puncture. Approximately 3±0.5 mL of whole blood was collected in a K2EDTA tube. Four aliquots (100 μL) were directly transformed to combustion cones. Blood aliquots were stored at ≤−20° C. until analyzed.
For Groups A-G, the right globe and one left globe from each group (N=3 globes) were collected and necropsied. The remaining left eye (except for Group G) was collected for possible 3D-QWBA (Quantitative whole body autoradiography) analysis and the conjunctiva remained intact to the eyes. For Groups H-I, both globes were collected from each animal and necropsied. All eyes designated for necropsy were rinsed with normal saline and aqueous humor samples were collected. The globes were enucleated and frozen in liquid nitrogen and stored at ≤−80° C. prior to dissection. The vitreous humor, cornea, conjunctiva, iris/ciliary body, lens, retina, choroid, and sclera were collected from the appropriate eye, weighed, and stored at ≤−20° C. prior to analysis. Aqueous humor samples were also stored at ≤−20° C. until analyzed.
All radioactivity measurements were performed using a Beckman Liquid Scintillation Spectrometer. Two blood aliquots were combusted and two aliquots were reserved for combustion if needed. From each eye, the cornea, conjunctiva, iris/ciliary body, lens, retina, choroid, and sclera from each eye were weighed into combustion cones and combusted. Duplicate aliquots of each aqueous humor sample and each vitreous humor sample were transferred to scintillation vials using Insta-Gel as the scintillation fluid, and the amount of radioactivity was determined.

[3] = system: mouse model of retina degeneration; experiment: Mouse model of retina degeneration (ONL thickness, PNA cone staining); assay type: in vivo; settings: compared to untreated mice
Description: CNV is induced in the eye with laser burns. (see Example 6). Mouse models of retinal degeneration have been investigated for many years in the hope of understanding the causes of photoreceptor cell death. Naturally occurring mouse mutants that manifest degeneration of photoreceptors in the retina with preservation of all other retinal cell types have been found: retinal degeneration (formerly rd, identical with rodless retina, r, now Pde6b rd1); Purkinje cell degeneration (pcd); nervous (nr); retinal degeneration slow (rds, now Prph Rd2); retinal degeneration 3 (rd3); motor neuron degeneration (mnd); retinal degeneration 4 (Rd4); retinal degeneration 5 (rd5); vitiligo (vir, now Mitf mi-vit); retinal degeneration 6 (rd6); retinal degeneration 7 (rd7); neuronal ceroid lipofuscinosis (nclf); retinal degeneration 8 (rd8); retinal degeneration 9 (Rd9); retinal degeneration 10 (rd10); and cone photoreceptor function loss (cpfl1).
FIG. 28 is a series of micrographs showing the thickness of the retinal outer nuclear layer (ONL) in a mouse model of retina degeneration in control and D-Arg-2′,6′-Dmt-Lys-Phe-NH2-treated mice.

## D-Arg-2′,6′-Dmt-Lys-Phe-NH2
[1]
  Δψm (ratio of red to green JC-1 fluorescence): remained virtually unchanged
[2]; aqueous humor
  AUC0-24 h: 2600 hr*ng-equi/g
  AUCinf: 2680 hr*ng-equi/g
  T1/2: 4.60 h
  Tmax: 4.0 h
[2]; blood, 1 hour after subcutaneous dosing (1 mg/kg)
  radioactivity concentration: 356 ng-equi/g
[2]; blood, 2 hours after subcutaneous dosing (1 mg/kg)
  radioactivity concentration: 87.9 ng-equi/g
[2]; blood
  AUC0-24 h: 1210 hr*ng-equi/g
  AUCinf: 1250 hr*ng-equi/g
  T1/2: 4.36 h
  Tmax: 2.0 h
[2]; choroid, lens and retina
  time post-dosing at which equivalent drug concentration reached a maximum: 4 h
[2]; choroid, 1 hour after subcutaneous dosing (1 mg/kg)
  equivalent drug concentration: 558±251 ng-equi/g
[2]; choroid
  AUC0-24 h: 1900 hr*ng-equi/g
  AUCinf: 2190 hr*ng-equi/g
  T1/2: 8.21 h
  Tmax: 4.0 h
[2]; conjunctiva, cornea and sclera
  time post-dosing at which equivalent drug concentration reached a maximum: 0.5 h
[2]; conjunctiva, 1 hour after subcutaneous dosing (1 mg/kg)
  equivalent drug concentration: 650±12 ng-equi/g
[2]; conjunctiva
  equivalent drug content at peak concentration, of the total dose administered to the eye: 0.293±0.198%
  AUC0-24 h: 41,400 hr*ng-equi/g
  AUCinf: 56,000 hr*ng-equi/g
  T1/2: 13.6 h
  Tmax: 0.5 h
[2]; cornea, 1 hour after subcutaneous dosing (1 mg/kg)
  equivalent drug concentration: 209 ng-equi/g
[2]; cornea
  equivalent drug content at peak concentration, of the total dose administered to the eye: 0.028±0.005%
  AUC0-24 h: 14,000 hr*ng-equi/g
  Tmax: 0.5 h
[2]; iris/ciliary body, 1 hour after subcutaneous dosing (1 mg/kg)
  equivalent drug concentration: 513±2 ng-equi/g
[2]; iris/ciliary body
  AUC0-24 h: 2750 hr*ng-equi/g
  AUCinf: 3279 hr*ng-equi/g
  T1/2: 8.81 h
  Tmax: 4.0 h
[2]; lens
  AUC0-24 h: 2720 hr*ng-equi/g
  Tmax: 4.0 h
[2]; retina, 1 hour after subcutaneous dosing (1 mg/kg)
  equivalent drug concentration: 336±3 ng-equi/g
[2]; retina
  AUC0-24 h: 1030 hr*ng-equi/g
  AUCinf: 1160 hr*ng-equi/g
  T1/2: 7.01 h
  Tmax: 4.0 h
[2]; sclera, 1 hour after subcutaneous dosing (1 mg/kg)
  equivalent drug concentration: 530±47 ng-equi/g
[2]; sclera
  equivalent drug content at peak concentration, of the total dose administered to the eye: 0.051±0.035%
  AUC0-24 h: 5780 hr*ng-equi/g
  AUCinf: 8910 hr*ng-equi/g
  T1/2: 18.3 h
  Tmax: 0.5 h
[2]; vitreous humor
  AUC0-24 h: 221 hr*ng-equi/g
  AUCinf: 253 hr*ng-equi/g
  T1/2: 7.50 h
  Tmax: 4.0 h
[3]
  cone cell density (PNA-stained retinal flat mounts): greater
  rows of cells in the retinal outer nuclear layer (ONL): retained a greater number of rows of cells
